Assay results as given in US10597388B2, “Pyridazinone herbicides” (FMC CORPORATION, priority 2014, dated 2020).

Experiments:
Format in all cases: in vivo
[1] = test system: galium (catchweed bedstraw, Galium aparine); assay: Test A greenhouse herbicide test, postemergence
Summary of the method: (§1)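 Visual injury score, 0 (no effect) to 100 (complete control), versus untreated controls roughly 10 d after postemergence spray; plants at one- to two-leaf stage, 2 to 10 cm tall, in loam soil and sand, kept in greenhouse.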

[2] = test system: blackgrass (Alopecurus myosuroides); assay: Test A greenhouse herbicide test, postemergence
Summary of the method: as §1

[3] = test system: ragweed (common ragweed, Ambrosia elatior); assay: Test C greenhouse herbicide test, pre- and postemergence
Text: (§2) Seeds of plant species selected from blackgrass (Alopecurus myosuroides), ryegrass, Italian (Italian ryegrass, Lolium multiflorum), wheat (winter wheat, Triticum aestivum), galium (catchweed bedstraw, Galium aparine), corn (Zea mays), large crabgrass, large (large crabgrass, Digitaria sanguinalis), foxtail, giant (giant foxtail, Setaria faberii), johnsongrass (Sorghum halepense), lambsquarters (Chenopodium album), morningglory (Ipomoea coccinea), nutsedge, yellow (yellow nutsedge, Cyperus esculentus), pigweed (Amaranthus retroflexus), ragweed (common ragweed, Ambrosia elatior), soybean (Glycine max), barnyardgrass (Echinochloa crus-galli), oilseed rape (Brassica napus), waterhemp (common waterhemp, Amaranthus rudis), and velvetleaf (Abutilon theophrasti) were planted into a blend of loam soil and sand and treated preemergence with test chemicals formulated in a non-phytotoxic solvent mixture which included a surfactant.
(§3) At the same time, plants selected from these crop and weed species and also chickweed (common chickweed, Stellaria media), kochia (Kochia scoparia), and oat, wild (wild oat, Avena fatua), were planted in pots containing Redi-Earth® planting medium (Scotts Company, 14111 Scottslawn Road, Marysville, Ohio 43041) comprising spaghnum peat moss, vermiculite, wetting agent and starter nutrients and treated with postemergence applications of test chemicals formulated in the same manner. Plants ranged in height from 2 to 18 cm (1- to 4-leaf stage) for postemergence treatments. Treated plants and controls were maintained in a greenhouse for 13 to 15 d, after which time all species were compared to controls and visually evaluated. Plant response ratings, summarized in Table C, are based on a scale of 0 to 100 where 0 is no effect and 100 is complete control. A dash (-) response means no test result.

[4] = test system: crabgrass, large (large crabgrass, Digitaria sanguinalis); assay: as above
Text: as §2, §3

[5] = test system: johnsongrass (Sorghum halepense); assay: as above
Text: as §2, §3

[6] = test system: oilseed rape (Brassica napus); assay: as above
Text: as §2, §3

[7] = test system: foxtail, giant (giant foxtail, Setaria faberii); assay: as above
Text: as §2, §3

[8] = test system: barnyardgrass (Echinochloa crus-galli); assay: as above
Text: as §2, §3

[9] = test system: galium (catchweed bedstraw, Galium aparine); assay: as above
Text: as §2, §3

[10] = test system: wheat (winter wheat, Triticum aestivum); assay: as above
Text: as §2, §3

[11] = test system: morningglory (Ipomoea coccinea); assay: as above
Text: as §2, §3

[12] = test system: ryegrass, Italian (Italian ryegrass, Lolium multiflorum); assay: as above
Text: as §2, §3

[13] = test system: lambsquarters (Chenopodium album); assay: as above
Text: as §2, §3

[14] = 125 g ai/ha, 0 to 100 scale where 0 is no effect and 100 is complete control
[15] = 500 g ai/ha, 0 to 100 scale, 0 is no effect, 100 is complete control
[16] = Postemergence, 31 g ai/ha, 0 to 100 scale (0 no effect, 100 complete control)
[17] = Postemergence, 125 g ai/ha, scale 0 to 100, 0 is no effect, 100 is complete control
[18] = Postemergence, 250 g ai/ha, scale 0 to 100, 0 no effect, 100 complete control, 13 to 15 d
[19] = Preemergence, 31 g ai/ha, scale 0 to 100, 0 is no effect, 100 is complete control
[20] = Preemergence, 62 g ai/ha, scale 0 to 100, 0 is no effect, 100 is complete control
[21] = Preemergence, 125 g ai/ha, scale 0 to 100, 0 is no effect, 100 is complete control
[22] = Preemergence, 250 g ai/ha, scale 0 to 100, 0 no effect, 100 complete control
[23] = postemergence, 62 g ai/ha, scale 0 to 100, 0 no effect, 100 complete control

Structure (SMILES): Cc1nn(C)c(=O)c(-c2ccc(F)c3ccccc23)c1O [Compound 41]
- Plant response rating, Galium [1, 14]: 80
- Galium plant response rating [1, 15]: 100
- Plant response rating, Blackgrass [2, 14]: 70
- Blackgrass plant response rating [2, 15]: 90
- Ragweed plant response rating [3, 16]: 70
- Plant response rating, Ragweed [3, 17]: 95
- Plant response rating, Ragweed [3, 18]: 100
- Plant response rating, Ragweed [3, 19]: 85
- Plant response rating, Ragweed [3, 20]: 85
- Plant response rating, Ragweed [3, 21]: 95
- Ragweed plant response rating [3, 22]: 100
- Ragweed plant response rating [3, 23]: 85
- Crabgrass, Large plant response rating [4, 16]: 5
- Plant response rating, Crabgrass, Large [4, 17]: 25
- Plant response rating, Crabgrass, Large [4, 18]: 35
- Plant response rating, Crabgrass, Large [4, 19]: 30
- Plant response rating, Crabgrass, Large [4, 20]: 35
- Plant response rating, Crabgrass, Large [4, 21]: 65
- Crabgrass, Large plant response rating [4, 22]: 70
- Crabgrass, Large plant response rating [4, 23]: 10
- Johnsongrass plant response rating [5, 16]: 5
- Plant response rating, Johnsongrass [5, 17]: 10
- Plant response rating, Johnsongrass [5, 18]: 35
- Plant response rating, Johnsongrass [5, 19]: 0
- Plant response rating, Johnsongrass [5, 20]: 50
- Plant response rating, Johnsongrass [5, 21]: 35
- Johnsongrass plant response rating [5, 22]: 35
- Johnsongrass plant response rating [5, 23]: 10
- Oilseed Rape plant response rating [6, 16]: 0
- Plant response rating, Oilseed Rape [6, 17]: 5
- Plant response rating, Oilseed Rape [6, 18]: 0
- Plant response rating, Oilseed Rape [6, 19]: 5
- Plant response rating, Oilseed Rape [6, 20]: 50
- Plant response rating, Oilseed Rape [6, 21]: 40
- Oilseed Rape plant response rating [6, 22]: 100
- Oilseed Rape plant response rating [6, 23]: 0
- Foxtail, Giant plant response rating [7, 16]: 15
- Plant response rating, Foxtail, Giant [7, 17]: 30
- Plant response rating, Foxtail, Giant [7, 18]: 65
- Plant response rating, Foxtail, Giant [7, 19]: 45
- Plant response rating, Foxtail, Giant [7, 20]: 80
- Plant response rating, Foxtail, Giant [7, 21]: 85
- Foxtail, Giant plant response rating [7, 22]: 85
- Foxtail, Giant plant response rating [7, 23]: 15
- Barnyardgrass plant response rating [8, 16]: 25
- Plant response rating, Barnyardgrass [8, 17]: 40
- Plant response rating, Barnyardgrass [8, 18]: 60
- Plant response rating, Barnyardgrass [8, 19]: 10
- Plant response rating, Barnyardgrass [8, 20]: 40
- Plant response rating, Barnyardgrass [8, 21]: 85
- Barnyardgrass plant response rating [8, 22]: 95
- Barnyardgrass plant response rating [8, 23]: 35
- Galium plant response rating [9, 16]: 100
- Plant response rating, Galium [9, 17]: 100
- Plant response rating, Galium [9, 18]: 100
- Plant response rating, Galium [9, 19]: 90
- Plant response rating, Galium [9, 20]: 100
- Plant response rating, Galium [9, 21]: 98
- Galium plant response rating [9, 22]: 98
- Galium plant response rating [9, 23]: 100
- Wheat plant response rating [10, 16]: 10
- Plant response rating, Wheat [10, 17]: 30
- Plant response rating, Wheat [10, 18]: 5
- Plant response rating, Wheat [10, 19]: 0
- Plant response rating, Wheat [10, 20]: 5
- Plant response rating, Wheat [10, 21]: 50
- Wheat plant response rating [10, 22]: 65
- Wheat plant response rating [10, 23]: 0
- Morningglory plant response rating [11, 16]: 95
- Plant response rating, Morningglory [11, 17]: 100
- Plant response rating, Morningglory [11, 18]: 98
- Plant response rating, Morningglory [11, 19]: 85
- Plant response rating, Morningglory [11, 20]: 95
- Plant response rating, Morningglory [11, 21]: 95
- Morningglory plant response rating [11, 22]: 98
- Morningglory plant response rating [11, 23]: 95
- Ryegrass, Italian plant response rating [12, 16]: 80
- Plant response rating, Ryegrass, Italian [12, 17]: 90
- Plant response rating, Ryegrass, Italian [12, 18]: 90
- Plant response rating, Ryegrass, Italian [12, 19]: 95
- Plant response rating, Ryegrass, Italian [12, 20]: 95
- Plant response rating, Ryegrass, Italian [12, 21]: 95
- Ryegrass, Italian plant response rating [12, 22]: 95
- Ryegrass, Italian plant response rating [12, 23]: 90
- Lambsquarters plant response rating [13, 16]: 90
- Plant response rating, Lambsquarters [13, 17]: 95
- Plant response rating, Lambsquarters [13, 18]: 98
- Plant response rating, Lambsquarters [13, 19]: 75
- Plant response rating, Lambsquarters [13, 20]: 90
- Plant response rating, Lambsquarters [13, 21]: 100
- Lambsquarters plant response rating [13, 22]: 90
- Lambsquarters plant response rating [13, 23]: 95
